Test results: ChEMBL document CHEMBL2216752, “Carnitine palmitoyltransferase (CPT) modulators: a medicinal chemistry perspective on 35 years of research” (J Med Chem, 2011)

Legend:
[1] = target: T1, Carnitine O-palmitoyltransferase 1, muscle isoform (Homo sapiens, UniProt Q92523); assay: Inhibition of human CPT1B
T1 sequence (Q92523 whole entry): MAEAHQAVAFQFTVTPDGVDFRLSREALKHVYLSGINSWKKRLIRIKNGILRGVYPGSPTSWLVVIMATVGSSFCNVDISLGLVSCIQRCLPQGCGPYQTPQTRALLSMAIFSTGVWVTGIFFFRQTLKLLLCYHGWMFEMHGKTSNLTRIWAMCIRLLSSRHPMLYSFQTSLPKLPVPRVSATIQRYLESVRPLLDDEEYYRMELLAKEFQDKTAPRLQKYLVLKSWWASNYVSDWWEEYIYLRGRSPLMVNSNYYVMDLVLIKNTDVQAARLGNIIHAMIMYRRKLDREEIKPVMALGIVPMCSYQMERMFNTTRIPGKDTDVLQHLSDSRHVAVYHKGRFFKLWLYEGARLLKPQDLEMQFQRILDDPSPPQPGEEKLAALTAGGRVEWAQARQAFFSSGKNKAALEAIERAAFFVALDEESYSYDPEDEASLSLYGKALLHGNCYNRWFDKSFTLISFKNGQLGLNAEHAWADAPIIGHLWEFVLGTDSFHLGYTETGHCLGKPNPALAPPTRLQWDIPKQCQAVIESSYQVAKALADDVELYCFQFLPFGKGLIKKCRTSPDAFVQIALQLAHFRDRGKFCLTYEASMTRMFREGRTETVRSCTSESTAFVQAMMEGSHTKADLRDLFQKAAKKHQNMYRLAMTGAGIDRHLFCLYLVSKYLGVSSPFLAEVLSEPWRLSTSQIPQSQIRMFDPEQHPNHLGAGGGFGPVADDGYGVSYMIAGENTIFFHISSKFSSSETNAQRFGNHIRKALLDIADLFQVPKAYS

[2] = target: Carnitine O-palmitoyltransferase 1, muscle isoform (Rattus norvegicus, UniProt Q63704); assay: Inhibition of […] in rat myocardium; format: tissue-based
[3] = Inhibition of human FAO
[4] = target: T2, Carnitine O-palmitoyltransferase 1, liver isoform (Homo sapiens, UniProt P50416); assay: Inhibition of human CPT1A
T2 sequence (P50416 whole entry): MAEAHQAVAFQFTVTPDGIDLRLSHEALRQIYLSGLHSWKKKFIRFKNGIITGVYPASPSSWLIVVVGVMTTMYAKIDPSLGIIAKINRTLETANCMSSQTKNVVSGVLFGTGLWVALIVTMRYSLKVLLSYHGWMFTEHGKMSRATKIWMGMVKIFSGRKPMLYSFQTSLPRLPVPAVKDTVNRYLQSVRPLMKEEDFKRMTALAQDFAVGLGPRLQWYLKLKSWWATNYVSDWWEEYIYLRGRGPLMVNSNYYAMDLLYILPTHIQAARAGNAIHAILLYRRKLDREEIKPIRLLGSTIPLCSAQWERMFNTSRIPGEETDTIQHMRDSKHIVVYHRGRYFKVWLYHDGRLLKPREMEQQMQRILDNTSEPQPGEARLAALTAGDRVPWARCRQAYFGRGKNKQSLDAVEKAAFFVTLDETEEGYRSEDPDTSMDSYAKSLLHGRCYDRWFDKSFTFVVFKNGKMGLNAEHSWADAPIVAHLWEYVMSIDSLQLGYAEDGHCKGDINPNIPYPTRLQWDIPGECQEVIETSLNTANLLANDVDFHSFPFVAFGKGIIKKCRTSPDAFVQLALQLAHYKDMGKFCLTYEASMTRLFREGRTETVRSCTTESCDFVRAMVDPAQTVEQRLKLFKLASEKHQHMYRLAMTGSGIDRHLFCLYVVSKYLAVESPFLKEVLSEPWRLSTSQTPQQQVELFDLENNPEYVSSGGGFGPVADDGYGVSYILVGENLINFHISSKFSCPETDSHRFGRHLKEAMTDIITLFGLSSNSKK

[5] = Inhibition of rat FAO
[6] = target: T3, Carnitine O-palmitoyltransferase 2, mitochondrial (Homo sapiens, UniProt P23786); assay: Inhibition of human CPT2
T3 sequence (P23786 whole entry): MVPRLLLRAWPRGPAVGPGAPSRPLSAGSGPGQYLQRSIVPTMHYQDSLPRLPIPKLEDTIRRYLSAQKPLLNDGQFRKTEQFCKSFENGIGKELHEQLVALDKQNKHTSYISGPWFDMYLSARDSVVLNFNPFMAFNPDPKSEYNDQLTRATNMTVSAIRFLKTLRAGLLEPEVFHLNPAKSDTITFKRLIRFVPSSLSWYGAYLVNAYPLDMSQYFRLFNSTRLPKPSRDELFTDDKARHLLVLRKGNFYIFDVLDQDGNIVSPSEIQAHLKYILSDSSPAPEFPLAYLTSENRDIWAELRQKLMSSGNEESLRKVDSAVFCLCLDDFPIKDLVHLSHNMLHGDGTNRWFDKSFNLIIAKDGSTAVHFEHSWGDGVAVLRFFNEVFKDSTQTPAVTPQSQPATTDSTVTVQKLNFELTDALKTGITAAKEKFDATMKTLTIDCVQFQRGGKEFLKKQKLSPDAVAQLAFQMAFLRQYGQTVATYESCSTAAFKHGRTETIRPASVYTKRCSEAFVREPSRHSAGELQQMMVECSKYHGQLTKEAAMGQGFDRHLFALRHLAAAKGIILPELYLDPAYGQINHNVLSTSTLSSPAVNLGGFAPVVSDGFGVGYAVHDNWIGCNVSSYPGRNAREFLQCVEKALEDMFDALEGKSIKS

[7] = Inhibition of FAO
[8] = Inhibition of carnitine palmitoyltransferase in 18 hr fasted rat liver homogenates; format: tissue-based
[9] = Inhibition of carnitine palmitoyltransferase in 18 hr fasted rat hepatocytes; format: cell-based; details: hepatocyte
Rattus norvegicus [10] = assay: Increase in plasma LDL level in fasted Wistar rat at 16 mg/kg, ip; format: functional; details: route intraperitoneal
Rattus norvegicus [11] = assay: Increase in plasma VLDL level in fasted Wistar rat at 16 mg/kg, ip; format: functional; details: route intraperitoneal
[12] = Inhibition of carnitine palmitoyltransferase in 20 hrs fasted Sprague-Dawley rat liver mitochondria assessed as palmitate oxidation by radiometry
Rattus norvegicus [13] = assay: Increase in plasma TG level in fasted Wistar rat at 16 mg/kg, ip; format: functional; details: route intraperitoneal
Rattus norvegicus [14] = assay: Reduction in plasma glucose level in fasted Wistar rat at 16 mg/kg, ip; format: functional; parameters: scale not given: the % may be the effect or the level left; details: route intraperitoneal
[15] = Inhibition of carnitine palmitoyltransferase in 24 hrs fasted rat liver mitochondria assessed as palmitoylcarnitine oxidation by radiometry
[16] = Inhibition of carnitine palmitoyltransferase in 20 hrs fasted Sprague-Dawley rat liver mitochondria assessed as palmitoylcarnitine oxidation by radiometry
[17] = target: T4, Carnitine O-palmitoyltransferase 2, mitochondrial (Rattus norvegicus, UniProt P18886); assay: Inhibition of rat CPT2
T4 sequence (P18886 whole entry): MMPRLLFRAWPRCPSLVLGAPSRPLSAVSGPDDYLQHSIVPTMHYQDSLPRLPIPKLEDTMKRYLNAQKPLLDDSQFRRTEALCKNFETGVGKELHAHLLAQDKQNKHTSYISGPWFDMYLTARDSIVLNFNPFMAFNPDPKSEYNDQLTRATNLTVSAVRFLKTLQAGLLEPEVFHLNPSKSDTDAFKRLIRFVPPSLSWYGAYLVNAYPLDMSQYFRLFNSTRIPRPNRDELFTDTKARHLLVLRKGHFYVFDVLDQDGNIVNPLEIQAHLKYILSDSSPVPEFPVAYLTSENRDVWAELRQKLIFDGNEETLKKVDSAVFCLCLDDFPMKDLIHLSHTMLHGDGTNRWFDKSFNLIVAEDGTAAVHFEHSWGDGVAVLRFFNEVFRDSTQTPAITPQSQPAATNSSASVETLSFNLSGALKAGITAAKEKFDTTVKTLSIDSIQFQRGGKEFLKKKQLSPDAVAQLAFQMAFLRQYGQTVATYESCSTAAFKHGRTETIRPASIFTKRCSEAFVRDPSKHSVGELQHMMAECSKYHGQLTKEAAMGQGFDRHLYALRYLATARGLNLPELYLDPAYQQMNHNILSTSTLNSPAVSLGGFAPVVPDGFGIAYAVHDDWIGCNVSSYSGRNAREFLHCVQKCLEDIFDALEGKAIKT

[18] = target: T4, Carnitine O-palmitoyltransferase 2, mitochondrial; assay: Inhibition of CPT2 in 24 hrs fasted rat liver mitochondria assessed as palmitoylcarnitine oxidation by radiometry
Rattus norvegicus [19] = assay: Reduction in palmitate oxidation in rat liver mitochondria at 18 mg/kg, ip administered as single dose measured 24 hrs post dose; format: functional; parameters: scale not given: the % may be the effect or the level left; details: route intraperitoneal
[20] = Inhibition of carnitine palmitoyltransferase in rat mitochondria
Rattus norvegicus [21] = assay: Increase in plasma FFA level in fasted Wistar rat at 16 mg/kg, ip; format: functional; details: route intraperitoneal
[22] = target: T1, Carnitine O-palmitoyltransferase 1, muscle isoform; assay: Inhibition of CPT1B in liver mitochondria
[23] = target: T1, Carnitine O-palmitoyltransferase 1, muscle isoform; assay: Inhibition of CPT1B in heart mitochondria
[24] = target: T2, Carnitine O-palmitoyltransferase 1, liver isoform; assay: Inhibition of CPT1 in liver mitochondria

Chain of Carnitine O-palmitoyltransferase 1, muscle isoform (Rattus norvegicus, UniProt Q63704) (Q63704 whole entry, canonical isoform): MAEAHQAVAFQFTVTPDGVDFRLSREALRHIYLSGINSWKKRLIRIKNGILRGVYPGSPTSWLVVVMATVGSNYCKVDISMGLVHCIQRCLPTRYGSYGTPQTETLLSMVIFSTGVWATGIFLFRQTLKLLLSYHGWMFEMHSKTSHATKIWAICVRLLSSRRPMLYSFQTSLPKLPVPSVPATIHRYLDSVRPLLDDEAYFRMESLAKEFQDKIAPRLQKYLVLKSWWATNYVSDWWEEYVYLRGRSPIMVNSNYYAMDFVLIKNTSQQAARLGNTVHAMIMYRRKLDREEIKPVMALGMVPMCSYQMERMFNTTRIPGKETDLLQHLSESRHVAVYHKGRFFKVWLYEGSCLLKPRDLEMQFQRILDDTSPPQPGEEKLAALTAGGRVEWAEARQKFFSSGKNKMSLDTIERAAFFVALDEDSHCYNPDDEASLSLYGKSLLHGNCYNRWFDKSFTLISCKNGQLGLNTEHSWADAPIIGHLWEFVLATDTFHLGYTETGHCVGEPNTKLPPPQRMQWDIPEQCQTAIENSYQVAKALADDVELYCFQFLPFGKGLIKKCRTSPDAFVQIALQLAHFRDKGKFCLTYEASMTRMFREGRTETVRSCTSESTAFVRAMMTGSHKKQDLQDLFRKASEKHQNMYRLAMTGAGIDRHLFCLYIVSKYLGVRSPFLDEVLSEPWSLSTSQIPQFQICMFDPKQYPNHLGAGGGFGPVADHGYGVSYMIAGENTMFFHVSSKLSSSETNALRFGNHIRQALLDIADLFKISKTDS

## COc1ccc(CN2CCNCC2)c(OC)c1OC [TRIMETAZIDINE]
[1]
  IC50: > 100 µM
[2]
  IC50: 1.3 µM
[3]
  IC50: 20.5 µM
[4]
  IC50: > 100 µM
[5]
  IC50: > 100 µM
[6]
  IC50: > 100 µM

## CCCCCCCCCCCCCCCC(=O)N[C@H](CC(=O)[O-])C[N+](C)(C)C [PALMITOYLAMINOCARNITINE]
[1]
  IC50: 21.7 µM
[3]
  IC50: 2.8 µM
[7]
  IC50: 0.05 µM
[8]
  IC50: 1.3 µM
[4]
  IC50: 2.67 µM
[9]
  IC50: 1.2 µM
[5]
  IC50: 0.27 µM
[6]
  IC50: 0.14 µM

## C[N+](C)(C)C[C@H](N)CC(=O)[O-]
[1]
  IC50: > 100 µM
Rattus norvegicus [10]
  Activity: 88%
Rattus norvegicus [11]
  Activity: 1034%
[12]
  IC50: 3.2 µM
Rattus norvegicus [13]
  Activity: 684%
Rattus norvegicus [14]
  Activity: 16%
[15]
  IC50: 5.4 µM
[16]
  IC50: 12 µM
[17]
  IC50: 5.1 µM
[18]
  IC50: 0.8 µM
Rattus norvegicus [19]
  Activity: 68%
[4]
  IC50: 76.4 µM
[20]
  IC50: 3.2 µM
Rattus norvegicus [21]
  Activity: 244%
[6]
  IC50: 3.9 µM

## O=C(O)C(=O)c1ccc(O)cc1
[1]
  IC50: 60.3 µM
[3]
  IC50: 33.3 µM
[22]
  IC50: 510 µM
[17]
  IC50: > 100 µM
[4]
  IC50: > 100 µM
[5]
  IC50: > 100 µM
[23]
  IC50: 11 µM
[6]
  IC50: > 100 µM

## COc1ccc(CN2CCN(CCCSc3cc(C(C)(C)C)c(O)c(C(C)(C)C)c3)CC2)c(OC)c1OC
[24]
  IC50: 51 µM
